# Experimental data published in patent US20230002774A1, “METHODS AND COMPOSTIONS FOR INHIBITING CORONAVIRAL REPLICATION” (California Institute of Technology, priority 2021, published 2023).
# Like-named read-outs stand apart in the source and are kept apart here.
# Columns and labels:
# HCoV-229E [1] = assay: Stage-limited inhibition assay, viral RNA at 8 hpi, HCoV-229E in H1299 cells; assay type: cell-based; parameters: dose or concentration left out as unconfirmed
# Protocol: (§1) Total cell RNA was extracted using the MagMAX mirVana Total RNA Isolation Kit (Thermo Fisher Scientific) with KingFisher systems (Thermo Fisher Scientific). RNA was quantified using NanoDrop Lite Spectrophotometer (Thermo Fisher Scientific). Total RNA ([…]) was reverse transcribed using the High-Capacity cDNA Reverse Transcription Kit (Thermo Fisher Scientific). cDNA samples were used for quantitative TagMan PCR using TaqMan™ Universal Master Mix II, no UNG (Thermo Fisher Scientific), in an QuantStudio™ 5 System (Thermo Fisher Scientific). FAM-MGB-labeled TaqMan probes for the indicated genes were purchased from Thermo Fisher Scientific. The resulting data were analyzed using Excel and GraphPad Prism 8.
# (§2) H1299 cells were treated with 0.1% DMSO, […] CB-5083, or […] of NMS-873 from 30 min prior to virus infection until 8 h post-infection. […] Cells were collected at 8 hpi for viral RNA determination.
# HCoV-OC43 [2] = assay: Stage-limited inhibition assay, viral RNA at 8 hpi, HCoV-OC43 in H1299 cells; assay type: cell-based; conditions: for viral RNA levels vs vehicle control, inhibitors throughout the experiment (group 2): 1 mM CB-5083 or 2 mM NMS-873, 30 min before infection to 8 hpi, harvested 8 hpi; for viral RNA levels, early treatment (group 3: pretreatment to 0 hpi): 1 mM CB-5083 or 2 mM NMS-873, harvested 8 hpi
# Protocol: as §1, §2
# HCoV-229E [3] = tested on: HCoV-229E
# [4] = tested on: HCoV-infected H1299 cells; conditions: CB-5083 0.5 mM until 8 hpi, viability at 72 hpi
# Protocol: (§3) Cells were seeded using 2×10^5 cells per well in 96-well plates and incubated overnight at 37° C. Cells were treated with the indicated concentration of CB-5083 and infected with virus or mock infected. After 1 h of infection, cells were washed three times with serum-free media and then cultured with media containing 10% FBS and the same concentration of CB-5083. Cultured media was replaced with fresh media at 8 hpi. At 72 hpi, cell viability was measured by CellTiter-Glo® Luminescent Cell Viability Assay (Promega).
# HCoV-229E [5] = assay type: cell-based
# HCoV-OC43 [6] = assay type: cell-based; parameters: HCoV-OC43 viral RNA level reduced: dose or concentration left out as unconfirmed; conditions: CB-5083 until 8 hpi, harvested 24 hpi
# HCoV-OC43 [7] = assay: Titer of secreted virus in culture media by TCID50 in H1299 cells, HCoV-OC43; assay type: cell-based
# HCoV-229E [8] = assay: Titer of secreted virus in culture media by TCID50 in H1299 cells, HCoV-229E; assay type: cell-based
# H1299 cells = conditions: cell viability at 72 hpi, normalized to mock-infected DMSO-treated control
# Protocol: as §3
# HCoV-OC43 [9] = conditions: HCoV-OC43, CB-5083 0.5 mM, 8 hpi
# Protocol: Cells were fixed with cold 4% paraformaldehyde for 15 min followed by permeabilization/blocking with 10% FBS and 0.2% Triton X-100 for another 1 h. Cells were stained with mouse anti-dsRNA antibody clone rJ2 (1:50) (Sigma-Aldrich, MABE1134) followed by labeling with anti-mouse mouse secondary antibody conjugated to Alexa-488 (Thermo Fisher Scientific). Nuclei were stained with Hoechst. Fluorescent images were acquired using Thermo Scientific™ Invitrogen™ EVOS™ FL Auto 2 Imaging System.
# Cells were treated with the indicated concentration of CB-5083 and infected with virus. After 1 h of infection, cells were washed three times with serum-free media and then returned to media containing 2% FBS and the same concentration of CB-5083.
Compound,"viral RNA levels vs vehicle control, inhibitors throughout the experiment (group 2) (HCoV-229E [1]; HCoV-229E, 30 min before infection to 8 hpi, harvested 8 hpi)","viral RNA levels, early treatment (group 3: pretreatment to 0 hpi) (HCoV-229E [1]; HCoV-229E, harvested 8 hpi)","viral RNA levels vs vehicle control, inhibitors throughout the experiment (group 2) (HCoV-OC43 [2])","viral RNA levels, early treatment (group 3: pretreatment to 0 hpi) (HCoV-OC43 [2])",dsRNA signals (immunostaining) (HCoV-229E [3]),cell viability increased compared to HCoV-infected and DMSO-treated control [4],HCoV-229E viral RNA level reduced (HCoV-229E [5]),"HCoV-229E viral RNA level, effect of different doses (HCoV-229E [5])",HCoV-OC43 viral RNA level reduced (HCoV-OC43 [6]),"HCoV-OC43 viral RNA level, effect of different doses (HCoV-OC43 [6])",viral titer of secreted HCoV-OC43 decreased (HCoV-OC43 [7]),viral titer of secreted HCoV-229E decreased (HCoV-229E [8]),toxicity of the tested concentrations to H1299 cells (H1299 cells),dsRNA signals (immunostaining) (HCoV-OC43 [9]),"viral RNA levels vs vehicle control, inhibitors throughout the experiment (group 2) (HCoV-229E [1])","viral RNA levels, early treatment (group 3: pretreatment to 0 hpi) (HCoV-229E [1])"
"Cc1cc(OCc2nnc(SC3CCCC3)n2-c2cccnc2)ccc1-c1ccc(S(C)(=O)=O)cc1 [NMS-873, 3-[3-cyclopentylsulfanyl-5-[[3-methyl-4-(4-methylsulfonylphenyl)phenoxy]methyl]-1,2,4-triazol-4-yl]pyridine]",Extensive reduction,only minor or no effects,Extensive reduction,only minor or no effects,,,,,,,,,,,,
Cc1cc2c(C(N)=O)cccc2n1-c1nc2c(c(NCc3ccccc3)n1)COCC2 [CB-5083],,,Extensive reduction,only minor or no effects,lower dsRNA signals,~29%,about 47%,reduced by CB-5083 in a dose-dependent manner,about 40%,reduced by CB-5083 in a dose-dependent manner,~85%,~81%,non-toxic,lower dsRNA signals,Extensive reduction,only minor or no effects
